Paper PMC8152690, “Biosynthetic access to the rare antiarose sugar via an unusual reductase-epimerase” (Chemical Science, 2020)

Tests used:
[1] = molecular target: T1, RubS5 (Streptomyces sp. KIB-H033, UniProt A0A1I9S3Q5); assay: HPLC and 1H-NMR of product; type: biochemical; conditions: sugar phosphate co-substrate (D-glucose-1-phosphate in text, D-glucose-6-phosphate in Fig. 2 legend)
T1 construct: expressed and purified; rubrolone gene cluster
T1 sequence (A0A1I9S3Q5 1-289): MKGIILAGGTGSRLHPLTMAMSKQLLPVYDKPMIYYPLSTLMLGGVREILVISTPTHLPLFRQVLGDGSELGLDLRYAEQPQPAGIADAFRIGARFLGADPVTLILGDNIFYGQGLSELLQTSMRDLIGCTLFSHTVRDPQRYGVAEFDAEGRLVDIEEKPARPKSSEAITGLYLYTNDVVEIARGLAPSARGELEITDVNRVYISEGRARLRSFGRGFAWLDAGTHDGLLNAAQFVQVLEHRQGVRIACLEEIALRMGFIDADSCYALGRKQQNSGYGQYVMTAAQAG

[2] = test system: T2, RblE; assay: spectrophotometric assay, decrease of NADPH absorbance; type: biochemical
T2 construct: rubterolone gene cluster

Structure (SMILES) | HPLC and 1H-NMR of product [1] | Km [2]
Cc1cn([C@H]2C[C@H](O)[C@@H](COP(=O)(O)OP(=O)(O)OP(=O)(O)O)O2)c(=O)[nH]c1=O [TTP] | buffer with TTP and D-glucose-6-phosphate. (b) RubS5 reaction | 
Cc1cn([C@H]2C[C@H](O)[C@@H](COP(=O)(O)OP(=O)(O)O[C@H]3O[C@H](C)C(=O)[C@H](O)[C@H]3O)O2)c(=O)[nH]c1=O [compound 1, TDP-4-keto-6-deoxy-D-glucose] |  | 35 µM
